Here are results for one molecule from patent US10479854B2, “Conjugate for treating malaria” (priority 2014, dated 2019).

For this test, the system named is chloroquine-resistant Plasmodium falciparum strain (D10R). The test can be described thus: In vitro anti-malaria assay (Malstat, lactate dehydrogenase). It is filed as cell-based. The settings on record: read-out: IC50(chloroquine). As to the method:
In separate experiments, tyrocidine/tryptocidines conjugated to polymers 11 and 12, respectively, were administered at varying concentrations to blood samples containing cells infected with a chloroquine-resistant Plasmodium falciparum strain (D10 resistant mutant denoted D10R, IC50(chloroquine)>100 nM). For comparison purposes, the unconjugated/unmodified natural tyrocidine/tryptocidine mixture was also administered to blood infected with the same chloroquin-resistant malaria strain. FIGS. 16 and 17 show the antimalaria activity and the haemolytic activity of the tyrocidine/tryptocidine-PVP conjugates in comparison with the natural cyclodecapetide mixture. […]
P. falciparum (D10 strain) was cultured and dose-response assays were performed as previously described.^9 Briefly, parasites were cultured under an atmosphere of 3% CO2, 4% O2 and 93% N2 in RPMI-1640 media, supplemented with 25 mM HEPES, 50 mM glucose, 0.65 mM hypoxanthine, 0.048 mg/mL gentamicin, 0.2% (w/v) NaHCO3, 0.5% (w/v) Albumax II and 2% fresh human O^+ erythrocytes obtained from anonymous donors from the Western Cape Blood Blank. […] A 10 μL aliquot from each well was diluted to 100 μL with phosphate buffered saline and analysed at 405 nm, on a plate reader, to determine the quantity of released haemoglobin and haemolytic activity of the conjugates. […]

The IC50 is the concentration at which inhibition is half-maximal. In the case of `CCN(CC)CCCC(C)Nc1ccnc2cc(Cl)ccc12` (stereo not shown) [chloroquine], the half-maximal inhibitory concentration (IC50) was > 100 nM.
